Data from article PMC5933782, “Molecular structures of cdc2-like kinases in complex with a new inhibitor chemotype” (PLoS ONE, 2018).

What was measured:
Test in all cases: radiometric protein kinase assay
[1] = molecular target: GSK-3; format: biochemical, porcine; conditions: 15 μmol/L ATP; read-out: IC50 GSK3
[2] = molecular target: DYRK1A (Homo sapiens, UniProt Q13627); format: biochemical; conditions: 15 μmol/L ATP; read-out: IC50 DYRK 1A
[3] = molecular target: T1, CDK5/p25 (Homo sapiens, UniProt Q00535); format: biochemical; conditions: 15 μmol/L ATP
T1 construct: made in house
T1 sequence (Q00535 whole entry): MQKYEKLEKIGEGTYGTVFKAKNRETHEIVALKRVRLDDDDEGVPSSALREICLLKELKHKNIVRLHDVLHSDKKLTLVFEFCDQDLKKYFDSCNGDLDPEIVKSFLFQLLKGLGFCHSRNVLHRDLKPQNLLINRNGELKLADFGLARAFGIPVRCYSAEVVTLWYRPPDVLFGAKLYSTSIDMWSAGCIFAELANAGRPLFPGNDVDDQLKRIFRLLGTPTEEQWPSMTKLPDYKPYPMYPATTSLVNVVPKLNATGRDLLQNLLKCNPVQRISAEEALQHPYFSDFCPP
T1 sequence (Q15078 99-307 partner limits assumed): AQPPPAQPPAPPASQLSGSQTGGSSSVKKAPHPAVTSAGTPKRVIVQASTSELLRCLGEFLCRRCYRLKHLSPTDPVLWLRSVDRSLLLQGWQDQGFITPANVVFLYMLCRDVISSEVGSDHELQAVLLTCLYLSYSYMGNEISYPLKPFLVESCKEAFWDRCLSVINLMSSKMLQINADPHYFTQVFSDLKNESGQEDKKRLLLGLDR

[4] = molecular target: CDK9/cyclin T (Homo sapiens, UniProt P50750)
CDK9/cyclin T, sequence (P50750 whole entry): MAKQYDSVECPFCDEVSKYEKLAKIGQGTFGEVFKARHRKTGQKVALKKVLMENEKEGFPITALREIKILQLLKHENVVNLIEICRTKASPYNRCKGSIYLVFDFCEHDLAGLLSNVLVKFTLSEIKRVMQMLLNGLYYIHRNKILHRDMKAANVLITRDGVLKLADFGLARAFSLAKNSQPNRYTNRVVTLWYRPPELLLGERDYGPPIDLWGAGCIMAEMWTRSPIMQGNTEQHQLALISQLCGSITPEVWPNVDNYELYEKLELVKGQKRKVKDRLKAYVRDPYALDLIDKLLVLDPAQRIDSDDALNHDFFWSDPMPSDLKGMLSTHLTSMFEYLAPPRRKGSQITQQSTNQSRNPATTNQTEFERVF
CDK9/cyclin T, sequence (O60563 whole entry partner): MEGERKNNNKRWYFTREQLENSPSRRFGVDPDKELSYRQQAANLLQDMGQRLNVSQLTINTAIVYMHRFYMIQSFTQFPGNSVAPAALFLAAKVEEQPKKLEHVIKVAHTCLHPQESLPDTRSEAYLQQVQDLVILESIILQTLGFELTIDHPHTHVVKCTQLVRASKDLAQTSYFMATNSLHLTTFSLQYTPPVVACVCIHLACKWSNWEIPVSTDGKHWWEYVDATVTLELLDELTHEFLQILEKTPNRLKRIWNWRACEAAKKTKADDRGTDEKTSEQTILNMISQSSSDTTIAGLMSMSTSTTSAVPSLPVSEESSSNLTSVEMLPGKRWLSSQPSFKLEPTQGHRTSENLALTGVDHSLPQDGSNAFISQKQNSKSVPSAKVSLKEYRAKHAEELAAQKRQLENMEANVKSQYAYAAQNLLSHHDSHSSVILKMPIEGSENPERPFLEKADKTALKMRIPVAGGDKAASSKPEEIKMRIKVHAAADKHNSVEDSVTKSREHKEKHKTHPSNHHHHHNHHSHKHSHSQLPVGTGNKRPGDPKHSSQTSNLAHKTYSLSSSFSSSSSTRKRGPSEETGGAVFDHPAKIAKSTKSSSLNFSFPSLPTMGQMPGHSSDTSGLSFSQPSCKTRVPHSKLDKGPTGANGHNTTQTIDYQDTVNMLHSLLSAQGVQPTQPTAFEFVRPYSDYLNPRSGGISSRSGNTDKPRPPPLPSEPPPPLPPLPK
Method: (§1) Buffers. Buffer A: 10 mM MgCl2, 1 mM EGTA, 1 mM DTT, 25 mM Tris-HCl pH 7.5, 50 μg heparin/mL. Buffer C: 60 mM β-glycerophosphate, 15 mM p-nitrophenylphosphate, 25 mM MOPS (pH 7.2), 15 mM EGTA, 15 mM MgCl2, 1 mM DTT, 1 mM sodium vanadate, 1 mM phenylphosphate.
(§2) Kinase activities were assayed in buffer A or C at 30°C at a final ATP concentration of 15 μmol/L. Blank values were subtracted and activities were expressed in percent of the maximal activity, i.e. in the absence of inhibitors. Controls were performed with appropriate dilutions of DMSO.
(§3) Their kinase activity was assayed in buffer A, with 1 mg histone H1/mL, in the presence of 15 μmol/L [γ-33P] ATP (3,000 Ci/mmol; 10 mCi/mL) in a final volume of 30 μL. After 30 min incubation at 30°C, the reaction was stopped by harvesting onto P81 phosphocellulose supernatant (Whatman) using a FilterMate harvester (Packard) and washing in 1% phosphoric acid. Scintillation fluid was added and the radioactivity measured in a Packard counter.
(§4) All data points for construction of dose response curves were recorded in triplicate.

[5] = molecular target: T2, CDK2/cyclin A (Homo sapiens, UniProt P24941); format: biochemical; conditions: 15 μmol/L ATP; read-out: IC50 CDK2/cyclinA
T2 construct: made in house

[6] = molecular target: CLK1 (Mus musculus, UniProt P22518)
CLK1, sequence (P22518 whole entry): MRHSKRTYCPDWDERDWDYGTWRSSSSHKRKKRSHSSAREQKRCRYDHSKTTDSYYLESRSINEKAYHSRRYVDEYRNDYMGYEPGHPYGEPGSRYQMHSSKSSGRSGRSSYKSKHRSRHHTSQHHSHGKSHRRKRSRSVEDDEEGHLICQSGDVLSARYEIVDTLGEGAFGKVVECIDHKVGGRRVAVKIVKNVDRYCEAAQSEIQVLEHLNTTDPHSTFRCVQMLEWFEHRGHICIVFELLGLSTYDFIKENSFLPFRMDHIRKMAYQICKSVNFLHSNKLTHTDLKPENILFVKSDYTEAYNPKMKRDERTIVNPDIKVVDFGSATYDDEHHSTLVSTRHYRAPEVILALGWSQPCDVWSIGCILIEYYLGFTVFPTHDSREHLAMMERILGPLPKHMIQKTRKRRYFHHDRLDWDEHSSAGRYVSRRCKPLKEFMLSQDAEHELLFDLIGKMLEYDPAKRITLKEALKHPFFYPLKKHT
Method: Buffer A: 10 mM MgCl2, 1 mM EGTA, 1 mM DTT, 25 mM Tris-HCl pH 7.5, 50 μg heparin/mL. Buffer C: 60 mM β-glycerophosphate, 15 mM p-nitrophenylphosphate, 25 mM MOPS (pH 7.2), 15 mM EGTA, 15 mM MgCl2, 1 mM DTT, 1 mM sodium vanadate, 1 mM phenylphosphate.
Controls were performed with appropriate dilutions of DMSO. The GS-1, CKS, CDK7/9 tide and RS peptide substrates were obtained from Proteogenix (Oberhausbergen, France).
CDK1/cyclin B (M phase starfish oocytes, native), CDK2/cyclin A and CDK5/p25 (human, recombinant) were prepared as previously described [33]. […] ATP (3,000 Ci/mmol; 10 mCi/mL) in a final volume of 30 μL. After 30 min incubation at 30°C, the reaction was stopped by harvesting onto P81 phosphocellulose supernatant (Whatman) using a FilterMate harvester (Packard) and washing in 1% phosphoric acid. Scintillation fluid was added and the radioactivity measured in a Packard counter.
as §4

[7] = molecular target: CK1δ/ε; format: biochemical, porcine; conditions: 15 μmol/L ATP; read-out: IC50 CK1
[8] = molecular target: CDK1/cyclin B; format: biochemical, starfish; conditions: 15 μmol/L ATP
[9] = molecular target: CLK3 (Mus musculus, UniProt O35492)
CLK3, sequence (O35492 whole entry): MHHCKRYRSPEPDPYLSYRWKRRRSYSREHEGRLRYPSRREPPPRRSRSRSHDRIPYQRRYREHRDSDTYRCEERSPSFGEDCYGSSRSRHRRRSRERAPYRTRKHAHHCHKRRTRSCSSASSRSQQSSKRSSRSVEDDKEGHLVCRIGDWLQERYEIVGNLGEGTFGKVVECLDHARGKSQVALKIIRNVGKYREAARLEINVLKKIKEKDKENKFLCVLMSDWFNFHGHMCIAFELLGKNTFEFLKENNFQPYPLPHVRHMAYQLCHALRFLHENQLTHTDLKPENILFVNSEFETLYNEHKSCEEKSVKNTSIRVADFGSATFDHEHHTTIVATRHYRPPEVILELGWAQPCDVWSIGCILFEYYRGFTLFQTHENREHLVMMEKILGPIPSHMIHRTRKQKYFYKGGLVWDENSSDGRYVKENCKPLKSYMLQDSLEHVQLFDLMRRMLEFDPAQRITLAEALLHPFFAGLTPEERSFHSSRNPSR
Method: as §1, §2, §3, §4

[10] = molecular target: T3, DYRK3 (Homo sapiens, UniProt O43781); format: biochemical; conditions: 15 μmol/L ATP; read-out: IC50 DYRK 3
T3 sequence (O43781 1-588): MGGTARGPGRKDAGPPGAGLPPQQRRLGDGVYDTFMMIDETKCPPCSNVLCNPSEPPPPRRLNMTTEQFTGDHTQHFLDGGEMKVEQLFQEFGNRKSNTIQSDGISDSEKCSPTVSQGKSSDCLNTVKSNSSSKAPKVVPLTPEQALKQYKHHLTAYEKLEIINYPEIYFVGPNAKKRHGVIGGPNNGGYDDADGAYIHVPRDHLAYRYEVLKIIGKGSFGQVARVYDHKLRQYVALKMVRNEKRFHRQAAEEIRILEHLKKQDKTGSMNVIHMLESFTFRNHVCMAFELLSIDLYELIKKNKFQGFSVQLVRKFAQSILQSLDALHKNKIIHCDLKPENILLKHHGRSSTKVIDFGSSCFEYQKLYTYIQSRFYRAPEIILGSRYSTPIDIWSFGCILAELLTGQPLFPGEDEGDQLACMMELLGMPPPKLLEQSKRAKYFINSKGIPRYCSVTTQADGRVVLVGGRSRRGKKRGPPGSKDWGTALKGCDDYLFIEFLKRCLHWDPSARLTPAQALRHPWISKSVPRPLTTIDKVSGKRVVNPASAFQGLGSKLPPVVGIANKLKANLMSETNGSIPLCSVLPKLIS

[11] = molecular target: T4, DYRK2 (Homo sapiens, UniProt Q92630); format: biochemical; conditions: 15 μmol/L ATP; read-out: IC50 DYRK 2
T4 sequence (Q92630 1-601): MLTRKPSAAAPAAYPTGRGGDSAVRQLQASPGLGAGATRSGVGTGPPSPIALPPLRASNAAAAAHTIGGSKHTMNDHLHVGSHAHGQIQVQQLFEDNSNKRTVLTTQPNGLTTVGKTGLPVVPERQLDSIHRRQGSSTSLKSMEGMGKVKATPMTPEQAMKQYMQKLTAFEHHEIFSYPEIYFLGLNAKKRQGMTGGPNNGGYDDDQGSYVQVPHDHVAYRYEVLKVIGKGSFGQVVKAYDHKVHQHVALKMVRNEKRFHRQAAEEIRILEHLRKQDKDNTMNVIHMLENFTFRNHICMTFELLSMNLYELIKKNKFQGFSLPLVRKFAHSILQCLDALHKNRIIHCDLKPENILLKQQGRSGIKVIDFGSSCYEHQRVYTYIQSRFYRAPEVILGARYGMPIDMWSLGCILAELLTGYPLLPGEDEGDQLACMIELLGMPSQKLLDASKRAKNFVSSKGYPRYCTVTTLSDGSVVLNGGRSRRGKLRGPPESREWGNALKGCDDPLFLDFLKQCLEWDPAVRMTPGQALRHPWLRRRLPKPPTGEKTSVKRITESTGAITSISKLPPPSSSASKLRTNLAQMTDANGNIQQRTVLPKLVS

[12] = molecular target: CLK2 (Mus musculus, UniProt O35491)
CLK2, sequence (O35491 whole entry): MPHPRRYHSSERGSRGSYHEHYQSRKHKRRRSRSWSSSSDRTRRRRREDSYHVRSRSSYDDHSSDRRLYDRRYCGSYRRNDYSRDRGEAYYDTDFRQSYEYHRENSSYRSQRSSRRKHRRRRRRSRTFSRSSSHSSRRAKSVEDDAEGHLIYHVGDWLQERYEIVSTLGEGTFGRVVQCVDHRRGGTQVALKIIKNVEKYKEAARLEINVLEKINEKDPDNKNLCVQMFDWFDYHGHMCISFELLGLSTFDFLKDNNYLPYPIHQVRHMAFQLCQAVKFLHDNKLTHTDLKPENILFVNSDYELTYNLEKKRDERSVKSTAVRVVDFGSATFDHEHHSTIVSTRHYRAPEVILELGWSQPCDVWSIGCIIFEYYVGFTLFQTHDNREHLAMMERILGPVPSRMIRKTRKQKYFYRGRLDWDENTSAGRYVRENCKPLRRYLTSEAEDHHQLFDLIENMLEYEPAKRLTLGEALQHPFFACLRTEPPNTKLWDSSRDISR
Method: as §1, §2, §3, §4

[13] = molecular target: CLK4 (Mus musculus, UniProt O35493)
CLK4, sequence (O35493 whole entry): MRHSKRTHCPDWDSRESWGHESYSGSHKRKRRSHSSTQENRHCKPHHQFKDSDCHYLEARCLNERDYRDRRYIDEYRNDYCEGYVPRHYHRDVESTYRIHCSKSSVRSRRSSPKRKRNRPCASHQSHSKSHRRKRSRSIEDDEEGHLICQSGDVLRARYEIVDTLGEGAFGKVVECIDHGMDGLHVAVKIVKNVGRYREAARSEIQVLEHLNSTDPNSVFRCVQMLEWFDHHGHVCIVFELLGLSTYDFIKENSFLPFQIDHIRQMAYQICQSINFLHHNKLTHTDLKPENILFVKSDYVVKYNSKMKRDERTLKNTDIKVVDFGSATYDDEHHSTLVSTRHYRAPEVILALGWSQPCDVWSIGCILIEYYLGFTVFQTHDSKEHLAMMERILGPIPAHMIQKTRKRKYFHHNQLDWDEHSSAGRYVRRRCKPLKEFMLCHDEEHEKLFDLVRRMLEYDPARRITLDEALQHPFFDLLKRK

[14] = molecular target: DYRK1B (Homo sapiens, UniProt Q9Y463); format: biochemical; conditions: 15 μmol/L ATP; read-out: IC50 DYRK 1B
DYRK1B, sequence (Q9Y463 whole entry): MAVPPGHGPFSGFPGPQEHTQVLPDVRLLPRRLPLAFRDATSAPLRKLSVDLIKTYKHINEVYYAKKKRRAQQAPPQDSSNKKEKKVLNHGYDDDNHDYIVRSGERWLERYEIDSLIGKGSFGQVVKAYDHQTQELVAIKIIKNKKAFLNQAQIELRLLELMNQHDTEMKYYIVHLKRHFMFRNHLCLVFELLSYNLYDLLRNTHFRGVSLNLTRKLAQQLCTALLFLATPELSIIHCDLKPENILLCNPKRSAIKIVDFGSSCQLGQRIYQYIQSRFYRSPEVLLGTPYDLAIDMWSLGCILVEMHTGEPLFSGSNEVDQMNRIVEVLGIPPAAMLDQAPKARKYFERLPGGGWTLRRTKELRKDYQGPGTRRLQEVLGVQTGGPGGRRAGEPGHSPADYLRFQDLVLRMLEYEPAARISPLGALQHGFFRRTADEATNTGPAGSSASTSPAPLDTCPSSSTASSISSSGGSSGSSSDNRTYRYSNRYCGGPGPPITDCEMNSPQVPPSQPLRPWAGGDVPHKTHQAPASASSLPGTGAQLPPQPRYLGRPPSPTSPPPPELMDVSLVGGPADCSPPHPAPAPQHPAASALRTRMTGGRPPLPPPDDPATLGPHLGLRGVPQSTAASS

Question: `Cc1[nH]c2c3c(ccc2c1-c1ccccc1)CNC3=O` [8k, 2-Methyl-3-phenyl-6,7-dihydropyrrolo[3,4-g]indol-8(1H)-one] was tested. Which IC50 [1] did it give?
Answer: > 10 µM

Question: And the IC50 [2]?
Answer: 1.5 µM

Question: And the IC50 [3]?
Answer: > 10 µM

Question: What about the IC50 [4] of the same compound?
Answer: > 10 µM

Question: And the IC50 [5]?
Answer: > 10 µM

Question: What about the IC50 [6] of the same compound?
Answer: 0.093 µM

Question: And the IC50 [7]?
Answer: > 10 µM

Question: What about the IC50 [8] of the same compound?
Answer: > 10 µM

Question: For `CCc1[nH]c2c3c(ccc2c1-c1ccccc1)CNC3=O` [8l, 2-Ethyl-3-phenyl-6,7-dihydropyrrolo[3,4-g]indol-8(1H)-one], which IC50 [1] is on record?
Answer: > 10 µM

Question: And the IC50 [2]?
Answer: 0.81 µM

Question: What about the IC50 [3] of the same compound?
Answer: > 10 µM

Question: And the IC50 [4]?
Answer: > 10 µM

Question: And the IC50 [5]?
Answer: > 10 µM

Question: What about the IC50 [6] of the same compound?
Answer: 0.12 µM

Question: What about the IC50 [7] of the same compound?
Answer: 6.1 µM

Question: What about the IC50 [8] of the same compound?
Answer: > 10 µM

Question: Which results are given for `O=C1NCc2c(Br)cc3c(-c4ccccc4)c[nH]c3c21` [12a, 5-Bromo-3-phenyl-6,7-dihydropyrrolo[3,4-g]indol-8(1H)-one]?
Answer: IC50 [1]: > 10 µM; IC50 [2]: 0.2 µM; IC50 [3]: 5.3 µM; IC50 [4]: > 10 µM; IC50 [5]: > 10 µM; IC50 [6]: 0.043 µM; IC50 [7]: 1.7 µM; IC50 [8]: 2.8 µM

Question: Which IC50 [1] does the source give for `Cc1[nH]c2c3c(c(Br)cc2c1-c1ccccc1)CNC3=O` [12b, 5-Bromo-2-methyl-3-phenyl-6,7-dihydropyrrolo[3,4-g]indol-8(1H)-one] here?
Answer: > 10 µM

Question: And the IC50 [2]?
Answer: 0.11 µM

Question: And the IC50 [9]?
Answer: 7.1 µM

Question: And the IC50 [10]?
Answer: 0.12 µM

Question: And the IC50 [3]?
Answer: > 10 µM

Question: What about the IC50 [11] of the same compound?
Answer: 0.11 µM

Question: And the IC50 [4]?
Answer: > 10 µM

Question: And the IC50 [12]?
Answer: 0.025 µM

Question: What about the IC50 [5] of the same compound?
Answer: > 10 µM

Question: And the IC50 [6]?
Answer: 0.023 µM

Question: And the IC50 [7]?
Answer: > 10 µM

Question: And the IC50 [13]?
Answer: < 0.03 µM

Question: And the IC50 [14]?
Answer: 0.11 µM

Question: And the IC50 [8]?
Answer: > 10 µM

Question: `O=C1NCc2c(Cl)cc3c(-c4ccccc4)c[nH]c3c21` [12c, 5-Chloro-3-phenyl-6,7-dihydropyrrolo[3,4-g]indol-8(1H)-one] was tested. Which IC50 [1] did it give?
Answer: > 10 µM

Question: What about the IC50 [2] of the same compound?
Answer: 0.32 µM

Question: And the IC50 [9]?
Answer: 2.2 µM

Question: And the IC50 [10]?
Answer: > 10 µM

Question: What about the IC50 [3] of the same compound?
Answer: > 10 µM

Question: What about the IC50 [11] of the same compound?
Answer: 2.3 µM

Question: What about the IC50 [4] of the same compound?
Answer: > 10 µM

Question: What about the IC50 [12] of the same compound?
Answer: 0.033 µM

Question: And the IC50 [5]?
Answer: > 10 µM

Question: And the IC50 [6]?
Answer: 0.38 µM

Question: And the IC50 [7]?
Answer: > 10 µM

Question: What about the IC50 [13] of the same compound?
Answer: 0.3 µM

Question: And the IC50 [14]?
Answer: 1.8 µM

Question: What does the source list for `CN1Cc2ccc3c(-c4ccccc4)c[nH]c3c2C1=O` [12d, 7-Methyl-3-phenyl-6,7-dihydropyrrolo[3,4-g]indol-8(1H)-one]?
Answer: IC50 [1]: > 10 µM; IC50 [2]: > 10 µM; IC50 [9]: > 10 µM; IC50 [10]: > 10 µM; IC50 [3]: > 10 µM; IC50 [11]: > 10 µM; IC50 [4]: > 10 µM; IC50 [12]: > 10 µM; IC50 [5]: > 10 µM; IC50 [6]: > 10 µM; IC50 [7]: > 10 µM; IC50 [13]: > 10 µM; IC50 [14]: > 10 µM; IC50 [8]: > 10 µM

Question: For `NC(=O)Cn1cc(-c2ccccc2)c2ccc3c(c21)C(=O)NC3` [15c, 2-(8-Oxo-3-phenyl-7,8-dihydropyrrolo[3,4-g]indol-1(6H)-yl)acetamide], which IC50 [1] is on record?
Answer: > 10 µM

Question: What about the IC50 [2] of the same compound?
Answer: > 10 µM

Question: What about the IC50 [9] of the same compound?
Answer: > 10 µM

Question: And the IC50 [10]?
Answer: > 10 µM

Question: What about the IC50 [3] of the same compound?
Answer: > 10 µM

Question: And the IC50 [11]?
Answer: > 10 µM

Question: And the IC50 [4]?
Answer: > 10 µM

Question: And the IC50 [12]?
Answer: > 10 µM

Question: And the IC50 [5]?
Answer: > 10 µM

Question: What about the IC50 [6] of the same compound?
Answer: > 10 µM

Question: What about the IC50 [7] of the same compound?
Answer: > 10 µM

Question: And the IC50 [13]?
Answer: > 10 µM

Question: And the IC50 [14]?
Answer: > 10 µM

Question: What about the IC50 [8] of the same compound?
Answer: > 10 µM
